Data taken from PMC7554340, “A Novel Dual-Targeted α-Helical Peptide With Potent Antifungal Activity Against Fluconazole-Resistant Candida albicans Clinical Isolates” (Frontiers in Microbiology, 2020).
Like-named read-outs stand apart in the source and are kept apart here. No end group written: not given here.

Experiments:
C. albicans cgmcc 2.2086 = test: Antifungal activity assay (broth microdilution, MIC/MFC); format: cell-based, Candida albicans; conditions: for MFC: 50 μl of MIC wells plated on YPD agar, 28°C, 48 h, lowest concentration that completely killed fungal cells, consensus of at least three independent experiments; for MIC: cgmcc 2.2086, 48 h, pH 7
[1] = test system: C. tropicalis cgmcc 2.1975; test: as above; format: cell-based, Candida tropicalis; conditions: for MFC: 50 μl of MIC wells plated on YPD agar, 28°C, 48 h, lowest concentration that completely killed fungal cells, consensus of at least three independent experiments; for MIC: cgmcc 2.1975, 48 h, pH 7
[2] = test system: C. parapsilosis cgmcc 2.3989; test: as above; format: cell-based, Candida parapsilosis; conditions: for MFC: 50 μl of MIC wells plated on YPD agar, 28°C, 48 h, lowest concentration that completely killed fungal cells, consensus of at least three independent experiments; for MIC: cgmcc 2.3989, 48 h, pH 7
C. albicans 56452 = conditions: 56452, 48 h; for MIC: pH 7
C. albicans 56214 = conditions: 56214, 48 h; for MIC: pH 7
C. albicans 14936 = conditions: 14936, 48 h; for MIC: pH 7
C. albicans 17546 = conditions: 17546, 48 h; for MIC: pH 7
C. albicans 58288 = conditions: 58288, 48 h; for MIC: pH 7
C. albicans sp3902 = conditions: sp3902, 48 h; for MIC: pH 7
C. albicans sp3903 = conditions: sp3903, 48 h; for MIC: pH 7
C. albicans sp3931 = conditions: sp3931, 48 h; for MIC: pH 7
C. albicans sp3876 = conditions: sp3876, 48 h; for MIC: pH 7
IPEC-J2 and PMEC cells [3] = test: Cytotoxicity MTT assay, statements for both cell lines; conditions: 24 h
IPEC-J2 and PMEC cells [4] = test system: IPEC-J2 and PMEC cells
[5] = IPEC-J2 cells, MTT, 24 h treatment, 1-64 μM, probit regression
[6] = PMEC cells, MTT, 24 h treatment, 1-64 μM, probit regression

Substance	MFC (C. albicans cgmcc 2.2086)	MIC (C. albicans cgmcc 2.2086)	MFC [1]	MIC [1]	MFC [2]	MIC [2]	MFC (C. albicans 56452)	MIC (C. albicans 56452)	MFC (C. albicans 56214)	MIC (C. albicans 56214)	MFC (C. albicans 14936)	MIC (C. albicans 14936)	MFC (C. albicans 17546)	MIC (C. albicans 17546)	MFC (C. albicans 58288)	MIC (C. albicans 58288)	MFC (C. albicans sp3902)	MIC (C. albicans sp3902)	MFC (C. albicans sp3903)	MIC (C. albicans sp3903)	also measured
RIGRVLLVRGIRRIGRVL-NH2 [RV3]	32 µM	32 µM	16 µM	8 µM	32 µM	16 µM	16 µM	16 µM	32 µM	16 µM	32 µM	32 µM	64 µM	64 µM	32 µM	32 µM	32 µM	32 µM	32 µM	32 µM	MFC (C. albicans sp3931): 32 µM; MIC (C. albicans sp3931): 32 µM; MFC (C. albicans sp3876): 32 µM; MIC (C. albicans sp3876): 32 µM; HC10 (human erythrocytes; red cells of human, 1 h): >64 µM; IC50 (IPEC-J2 cells; [5]): > 64 µM; IC50 (PMEC cells; [6]): > 64 µM; cytotoxic effects (in words) (IPEC-J2 and PMEC cells [3]; 1-64 μM): negligible cytotoxic effects
KIGKVL-NH2 [KV]	>64 µM	>64 µM	>64 µM	>64 µM	>64 µM	>64 µM	>64 µM	>64 µM	>64 µM	>64 µM	>64 µM	>64 µM	>64 µM	>64 µM	>64 µM	>64 µM	>64 µM	>64 µM	>64 µM	>64 µM	MFC (C. albicans sp3931): >64 µM; MIC (C. albicans sp3931): >64 µM; MFC (C. albicans sp3876): >64 µM; MIC (C. albicans sp3876): >64 µM
RIGRFLLFRGIRRIGRFL-NH2 [RF3]	8 µM	8 µM	8 µM	8 µM	16 µM	16 µM	8 µM	8 µM	8 µM	4 µM	8 µM	8 µM	16 µM	8 µM	8 µM	8 µM	8 µM	8 µM	8 µM	8 µM	MFC (C. albicans sp3931): 8 µM; MIC (C. albicans sp3931): 8 µM; MFC (C. albicans sp3876): 4 µM; MIC (C. albicans sp3876): 4 µM; HC10 (human erythrocytes): > 64 µM; IC50 (IPEC-J2 cells; 24 h): 59.8 µM; IC50 (PMEC cells; 24 h): 54 µM; cytotoxicity at 64 μM (in words) (IPEC-J2 and PMEC cells [4]): sharp rise in cytotoxicity
KIGKWLLWKGIKKIGKWL-NH2 [KW3]	8 µM	4 µM	2 µM	2 µM	8 µM	8 µM	4 µM	4 µM	8 µM	4 µM	8 µM	8 µM	8 µM	8 µM	8 µM	8 µM	2 µM	2 µM	8 µM	4 µM	MFC (C. albicans sp3931): 8 µM; MIC (C. albicans sp3931): 8 µM; MFC (C. albicans sp3876): 8 µM; MIC (C. albicans sp3876): 8 µM; hemolytic activity (in words) (human erythrocytes): strong hemolytic activities; HC10 (human erythrocytes; red cells of human, 1 h): 2.69 µM; IC50 (IPEC-J2 cells; [5]): 6.84 µM; IC50 (PMEC cells; [6]): 10.3 µM; concentration at which statistically significant cytotoxic effects started (IPEC-J2 and PMEC cells [3]): 4 µM
